Source: publication doi:10.1101/2025.05.29.656781v1 (biorxiv, 2025)
Residue numbers refer to the chain shown, from its start.

Assays:
KV4.3/KChIP3 [1] = molecular target: T1, KV4.3/KChIP3 (Homo sapiens, UniProt Q9Y2W7, Y130A); assay: whole-cell patch clamp, per cent block; format: cell-based; details: read-out: % inhibition at 30 nM
T1 sequence (Q9Y2W7 1-256 Y130A): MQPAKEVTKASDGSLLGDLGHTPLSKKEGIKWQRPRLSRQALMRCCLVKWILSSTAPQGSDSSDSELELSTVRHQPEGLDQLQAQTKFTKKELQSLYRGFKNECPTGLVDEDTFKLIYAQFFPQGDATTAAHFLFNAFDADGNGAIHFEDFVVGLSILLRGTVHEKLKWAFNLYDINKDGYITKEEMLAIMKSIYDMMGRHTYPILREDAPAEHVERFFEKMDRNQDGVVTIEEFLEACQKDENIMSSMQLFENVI
T1 sequence (Q9UK17 1-655 partner): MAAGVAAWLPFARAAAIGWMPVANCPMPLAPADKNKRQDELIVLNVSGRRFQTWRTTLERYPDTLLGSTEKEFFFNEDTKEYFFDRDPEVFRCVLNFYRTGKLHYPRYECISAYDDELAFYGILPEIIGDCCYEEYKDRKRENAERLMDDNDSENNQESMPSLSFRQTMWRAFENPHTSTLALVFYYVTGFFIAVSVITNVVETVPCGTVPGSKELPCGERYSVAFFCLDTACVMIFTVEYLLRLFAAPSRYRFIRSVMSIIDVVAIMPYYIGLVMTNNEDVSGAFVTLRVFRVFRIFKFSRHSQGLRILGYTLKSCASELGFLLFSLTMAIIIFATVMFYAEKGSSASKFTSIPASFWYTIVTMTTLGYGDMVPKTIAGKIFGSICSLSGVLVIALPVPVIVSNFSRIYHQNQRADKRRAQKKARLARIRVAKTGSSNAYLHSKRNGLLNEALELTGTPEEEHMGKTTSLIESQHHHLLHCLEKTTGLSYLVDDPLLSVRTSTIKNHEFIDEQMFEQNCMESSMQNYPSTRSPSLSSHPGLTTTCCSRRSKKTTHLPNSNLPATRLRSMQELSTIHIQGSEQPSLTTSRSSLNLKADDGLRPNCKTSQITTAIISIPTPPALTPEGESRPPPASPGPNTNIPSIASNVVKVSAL

KV4.3/KChIP3 [2] = molecular target: T2, KV4.3/KChIP3 (Homo sapiens, UniProt Q9Y2W7); assay: whole-cell patch clamp, per cent block; format: cell-based; details: read-out: % inhibition at 30 nM
T2 sequence (Q9Y2W7 1-256): T1 sequence (Q9Y2W7 1-256 Y130A) with A130Y
T2 sequence (Q9UK17 1-655 partner): T1 sequence (Q9UK17 1-655 partner)

KV4.3/KChIP3 [3] = molecular target: T3, KV4.3/KChIP3 (Homo sapiens, UniProt Q9Y2W7, Y118A); assay: whole-cell patch clamp, per cent block; format: cell-based; details: read-out: % inhibition at 30 nM
T3 sequence (Q9Y2W7 1-256 Y118A): T1 sequence (Q9Y2W7 1-256 Y130A) with Y118A, A130Y
T3 sequence (Q9UK17 1-655 partner): T1 sequence (Q9UK17 1-655 partner)

KV4.3/KChIP3 [4] = molecular target: T4, KV4.3/KChIP3 (Homo sapiens, UniProt Q9Y2W7, K166A); assay: whole-cell patch clamp, per cent block; format: cell-based; details: read-out: % inhibition at 30 nM
T4 sequence (Q9Y2W7 1-256 K166A): T1 sequence (Q9Y2W7 1-256 Y130A) with A130Y, K166A
T4 sequence (Q9UK17 1-655 partner): T1 sequence (Q9UK17 1-655 partner)

KChIP3 = molecular target: T5, KChIP3 (Homo sapiens, UniProt Q9Y2W7); assay: tryptophan fluorescence quenching; format: binding
T5 sequence (Q9Y2W7 1-256): T1 sequence (Q9Y2W7 1-256 Y130A) with A130Y

KV4.3/KChIP3 [5] = molecular target: T2, KV4.3/KChIP3; assay: whole-cell patch clamp, peak current at +[…] mV; format: cell-based

For `O=C(Cc1cccc(-c2ccccc2)c1)Nc1cc(Cl)ccc1C(=O)O` [compound 1, 2-(2-([1,1’-biphenyl]-3-yl)acetamido)-4-chlorobenzoic acid], the inhibition at 0.03 µM (KV4.3/KChIP3 [1]) was 9.7 ± 2.5%, the inhibition at 0.03 µM (KV4.3/KChIP3 [2]) was 23.2 ± 2.7% and the inhibition at 0.03 µM (KV4.3/KChIP3 [3]) was 17 ± 3.6%. It also gave an inhibition at 0.03 µM (KV4.3/KChIP3 [4]) of 9 ± 2.5%, a Kd (KChIP3) of 230 ± 20 nM and an IC50 (KV4.3/KChIP3 [5]) of 30 nM.
